Test results published in article PMC8148055 (Acta Pharmaceutica Sinica. B, 2020).

Target: sirtuin 6 (SIRT6) (Homo sapiens, UniProt Q8N6T7)
Experiment: Fluor de Lys deacetylation assay
Format: biochemical

sirtuin 6 (SIRT6), sequence (Q8N6T7 2-355): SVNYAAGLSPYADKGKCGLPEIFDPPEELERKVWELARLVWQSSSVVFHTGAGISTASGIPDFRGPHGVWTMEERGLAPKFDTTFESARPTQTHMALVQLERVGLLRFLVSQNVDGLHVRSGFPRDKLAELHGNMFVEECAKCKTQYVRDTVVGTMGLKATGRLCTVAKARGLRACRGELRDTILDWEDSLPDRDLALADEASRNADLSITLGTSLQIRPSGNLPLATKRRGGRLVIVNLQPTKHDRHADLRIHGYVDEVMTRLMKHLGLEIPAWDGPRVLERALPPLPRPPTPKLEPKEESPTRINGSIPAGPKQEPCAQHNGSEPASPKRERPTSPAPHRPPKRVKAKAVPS

For MDL-801-E1, the “Fluor de Lys deacetylation assay (about 4-fold activation)” value was ~ 4 fold.
